The test system of experiment [1] is hSmad7 mRNA in BMP9-stimulated HMVEC. Kind of experiment: Smad7 target gene induction: HMVEC cell assay and TaqMan expression analysis. Format: cell-based. The settings on record: Homo sapiens, hBMP9 stimulation, Smad7 mRNA by TaqMan. The protocol: B-2a. Smad7 Target Gene Induction: HMVEC Cell Assay and TaqMan Expression Analysis
Activation of ALK1 receptors by BMP9 induces the Smad1/5 signalling pathway and enhances expression of target genes Smad6, Smad7 and Id-1. Induction of Smad7-mRNA in BMP9-stimulated endothelial cells was determined to monitor the cellular potency of ALK1 kinase inhibitors.
Human microvascular endothelial cells (IIMVECadult, Cell Systems, St. Katharinen) were seeded in complete ENGS MV medium with all supplements (LifeLine Cell Technology) in 96 well plates with 10 000 cells per well. After 4 h incubation at 37° C. and 7.5% CO2 in a humidified incubator, medium was replaced with minimal medium (ENGS MV without supplements containing 0.02% FCS). After 16 h, test compounds or medium (controls) were added to the cultures, followed 30 min later by addition of hBMP9 (R&D Systems). Medium was removed 1 to 4 h later, plates were gently washed with phosphate-buffered saline, and cells were lysed with 150 μl per well of ice-cold RLT buffer (Qiagen).
Total cellular RNA was isolated with the Trizol® reagent protocol according to the manufacturer's specifications (Invitrogen, USA) and treated with DNAseI to remove genomic DNA contamination.
For relative quantitation of the mRNA distribution of hSmad7, total RNA from each sample was first reverse-transcribed using the ImProm-II Reverse Transcription System (Promega, USA) according to the manufacturer's protocol. The final volume was adjusted to 200 μl with water.
For relative quantitation of selected mRNA, the Applied Bioscience ABI 7900HT Sequence Detection System was used according to the manufacturer's specifications and protocols. PCR reactions were set up to quantitate hSmad7- and the housekeeping gene L32-mRNA. Forward and reverse primers and probes for hSmad7 and L32 were designed using the Applied Bioscience ABI Primer Expressim software and were synthesized by Eurogentec (Belgium). The hSmad7 forward primer sequence was: Primer 1 (SEQ ID NO 1). The hSmad7 reverse primer sequence was: Primer 2 (SEQ ID NO 2). Probe 1 (SEQ ID NO 3), labelled with FAM as the reporter dye and TAMRA as the quencher, was used as a probe for hSmad7. The L32 forward primer sequence was: Primer 3 (SEQ ID NO 4). The L32 reverse primer sequence was: Primer 4 (SEQ ID NO 5). Probe 2 (SEQ ID NO 6), labelled with FAM as the reporter dye and TAMRA as the quencher, was used as a probe for L32.
The following reagents were prepared in a total of 20 μl added per well: 1× qPCR-MasterMix (Eurogentec, Belgium) and hSmad7 forward and reverse primers each at 200 nM, 200 nM hSmad7 FAM/TAMRA-labelled probe 1 (SEQ ID NO 3), and 5 μl of template cDNA. Correspondingly, a second mix in a total of 20 μl was prepared using L32 FAM/TAMRA-labelled probe 2 (SEQ ID NO 6) and L32 forward and reverse primers added per well in parallel samples.
Thermal cycling parameters were 2 min at 50° C., followed by 10 min at 95° C., followed by 40 cycles of melting at 95° C. for 15 sec and annealing/extending at 60° C. for 1 min.
Calculation of Relative Expression:
The Ct (cycle threshold) values were calculated from the turning point of PCR product quantity curves by the ΔΔCt method (delta-delta Ct): ΔCt=CthSmad7−CtL32; relative expression=2^(15-ΔCt).
IC50 values of test compounds were calculated on basis of relative Smad7 expressions at different compound concentrations.

Experiment [2] deals with ALK1 kinase (Homo sapiens (Human), UniProt P37023). Kind of experiment: In vitro enzyme inhibition using scintillation of incorporated radio label (flashplate assay). The settings on record: biotinylated α-casein, 33P-ATP, 500 nM ATP. Format: biochemical. The protocol: B-1a. In Vitro Enzyme Inhibition Using Scintillation of Incorporated Radio Label (Flashplate Assay)
Chain of ALK1 kinase (P37023 22-503): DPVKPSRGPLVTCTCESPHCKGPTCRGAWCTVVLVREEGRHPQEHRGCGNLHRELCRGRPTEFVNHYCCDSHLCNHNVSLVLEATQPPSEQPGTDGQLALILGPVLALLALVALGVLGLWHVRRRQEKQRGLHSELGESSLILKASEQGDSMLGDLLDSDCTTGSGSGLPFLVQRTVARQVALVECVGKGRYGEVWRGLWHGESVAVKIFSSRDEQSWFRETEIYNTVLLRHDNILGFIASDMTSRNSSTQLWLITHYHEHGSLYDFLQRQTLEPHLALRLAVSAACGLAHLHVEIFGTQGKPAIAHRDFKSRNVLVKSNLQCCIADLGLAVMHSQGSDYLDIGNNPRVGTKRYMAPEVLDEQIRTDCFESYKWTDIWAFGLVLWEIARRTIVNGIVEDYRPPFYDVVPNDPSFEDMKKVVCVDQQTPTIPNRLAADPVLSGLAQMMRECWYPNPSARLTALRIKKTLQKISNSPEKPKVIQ
Test compounds diluted in DMSO are mixed with a suitable substrate/co-substrate (here: biotinylated α-casein and ^33P-ATP) in a corresponding assay buffer. Addition of the enzyme of interest (here: ALK1 kinase) starts the enzyme reaction. The enzyme-catalyzed incorporation of radio label into the substrate is measured via scintillation. Incorporated radio label is separated from free radio label via specific binding of the biotinylated substrate to strepavidin-coated microtiter plates (flashplates) and concomitant washing steps. The scintillation signal intensity (counts per minutes, cpm) is proportional to the enzyme activity. Enzyme inhibition results in a decreased signal intensity. IC50 values of the test compounds are determined by cpm-versus-[I] plots.
Reaction buffer contains 50 mM Tris pH 8.0 (Sigma), 1 mM MnCl2 (Sigma), 0.01% Nonidet P40 (Fluka), 0.5× Complete EDTA-free protease inhibitors (Roche; contains a mixture of several protease inhibitors for the inhibition of serine and cysteine (but not metallo-) proteases; 1 tablet contains protease inhibitors sufficient for a 50 ml cell extract; the concentration used in this assay corresponds to 1 tablet in 100 ml).
• 1.) Stop solution: Dulbecco's PBS (PAA, Pasching, Austria), 25 mM EDTA (Sigma), 25 μM ATP (Roche), 0.05% Triton X-100 (Sigma); • 2.) Saturation buffer: Dulbecco's PBS (PAA, Pasching, Austria), 100 μM ATP (Roche), 0.2% Triton X-100 (Sigma); • 3.) Wash buffer: Dulbecco's PBS (PAA, Pasching, Austria). Enzyme Solution:
ALK1 (Invitrogen, Paisley, United Kingdom) stock solution (35.7 ng/μl) is diluted to 4 ng/μl; final concentration in the reaction is 1 ng/μl.
Dephosphorylated α-casein (Sigma) is biotinylated according to the manufacturer's protocol (Pierce, Bonn, Germany) resulting in a stock solution of 61.6 μM. Briefly, EZ-Link® Biotin reagent (sulfosuccinimidyl-6-(biotinamido)hexanoate; Pierce, Bonn, Germany) is added in equal molarity to α-casein and incubated on ice for 2 h. Afterwards, the biotin reagent is removed by dialysis (2×2 h and overnight).
A 100 mM solution of cold (unlabelled) ATP (Roche) is diluted 1:100 before each test. For the substrate mix, α-casein is diluted to 2.22 μM resulting in a final concentration of 1 μM α-casein in the reaction. Additionally, cold ATP is added to give a 1.11 μM solution which results in a final concentration of 500 nM in the reaction.
Radioactive ATP Solution:
The stock solution (9.25 MBq/25 μl of ^33P-ATP; Perkin Elmer, Rodgau, Germany) is diluted to 651.2 Bq/μl.
Compounds are dissolved in 100% DMSO (10 mM stock solution) and diluted to 2 mM. Further dilutions are made stepwise 1:3.16 in DMSO.
A volume of 9 μl substrate solution is provided into each well of a 384 well microliter plate (Greiner Bio-One, Solingen, Germany), 1 μl compound solution and 5 μl of the radioactive ATP solution are added. Enzyme reaction starts with addition of 5 μl of enzyme solution. The mixture is incubated for 60 minutes at room temperature and then stopped by addition of 10 μl stop solution. The 384 well microliter flashplates (Perkin Elmer, Rodgau, Germany) are saturated with 50 μl saturation buffer per well for at least 60 minutes. Subsequently, a volume of 20 μl is discarded and replaced with 20 μl of the stopped ALK1 reaction mixture. Binding of biotinylated substrate to the flashplate is allowed for by overnight incubation at room temperature. Bound substrate is separated from unbound components through repeated washing steps (3×50 μl washing buffer per well). Finally, 50 μl washing buffer is added, and the scintillation signal (cpm) is measured in a suitable counter (Perkin Elmer, Rodgau, Germany).

Experiment [3] deals with hSmad7 mRNA in BMP9-stimulated HUVEC. The experiment is described as follows: Smad7 target gene induction: HUVEC cell assay and TaqMan expression analysis. The experiment is classed as cell-based, human. The settings on record: 1 ng/ml BMP9 for 3 h, Smad7 mRNA by TaqMan. The protocol:
B-2b. Smad7 Target Gene Induction: HUVEC Cell Assay and TaqMan Expression Analysis
The in vitro potency of ALK1 inhibitors was tested in a cell-based assay. Bone morphogenetic protein 9 (BMP9) induces Smad7 mRNA expression in human vascular endothelial cells (HUVEC) via activation of ALK1.
1.5×10^4 passage 2 HUVECs (Lonza, Basel, Switzerland) per well were seeded in a 96-well plate in EBM-2 medium containing EGM-2 additives and growth factors (Lonza, CC-3156 and CC-4176). After 4 h, the medium was changed to EBM-2 with 0.2% fetal calf serum (FCS) and the cells were starved for 20 h in a humidified incubator at 37° C., 5% CO2. Test compounds were added at 11 different concentrations between 0 and 10 000 nM one hour prior to stimulation of the cells for 3 h with recombinant human BMP9 protein at 1 ng/ml (dissolved in 4 mM hydrochloric acid, 0.1% BSA at 10 μg/ml; R&D Systems, Minneapolis, Minn., USA, 3209BP). Medium was removed, and the cells were lysed in 100 μl RLT buffer (Qiagen, Hilden, Germany). RNA was isolated using the Qiagen RNeasy 96 Kit (order-No. 74182) according to manufacturer's instructions and eluted from the columns with 65 μl RNAse-free water. Reverse transcription for quantitative RT-PCR was carried out with the Omniscript Kit (Qiagen, 205113) in RNAse-free 96-well round-bottom plates. Per well, 6.8 μl of a reaction master mix containing 2 μl 10×RT-buffer, 2 μl dNTPs (5 mM each), 1.6 μl random primer N6 (125 μM), 0.25 μl Rnase Out (40 U/μl) and 1 μl Omniscript Reverse Transcriptase were added. After addition of 13.2 μl of the RNA/water mixture, plate contents were mixed, incubated for 1 h at 37° C. and the total volume adjusted to 100 μl in each well by addition of 80 μl RNAse-free water.
The quantification of human Smad7 mRNA was carried out on a TaqMan using the Eurogentec qPCR Mastermix Plus (RT-QP2X-03-075+; Cologne, Germany) and employing human L32 as housekeeping reference mRNA. Per qPCR reaction, 2.8 μl primer mix, 10 μl master mix, 2.2 μl water and 5 μl cDNA were added. Thermal cycling parameters were 2 min at 50° C., followed by 10 min at 95° C., followed by 40 cycles of melting at 95° C. for 15 sec and annealing/extending at 60° C. for 1 min.
Smad7 mRNA levels induced by 1 ng/ml BMP9 without the addition of any inhibitor were set at 100% induction, and % inhibition was calculated for each test compound with this value. For each test compound, every value was determined in quadruplicate. The IC50 values were determined using Microsoft Excel. The fitting method used was a weighted, unconstrained ML-fit.
(In general: Real-time PCR tracks product formation cycle by cycle.)

Each structure is given as a SMILES string.

As a reminder, the IC50 is the midpoint of a concentration-inhibition curve. The low end stands for inhibition by little substance, the high end for a need for much substance. `Nc1ncnn2c(C3CCNC3)cc(-c3cc(F)c(CO)c(F)c3)c12` (racemic) [Example 8, rac-{4-[4-Amino-7-(pyrrolidin-3-yl)pyrrolo[2,1-f][1,2,4]triazin-5-yl]-2,6-difluorophenyl}methanol]: the concentration for half-maximal inhibition (IC50) in experiment [1] was found to be 60 nM.
In the case of `COc1cc(-c2cc(C(O)C3CC3)n3ncnc(N)c23)ccc1CO` (racemic) [Example 40, rac-{4-Amino-5-[4-(hydroxymethyl)-3-methoxyphenyl]pyrrolo[2,1-f][1,2,4]triazin-7-yl}(cyclopropyl)methanol], the IC50 in experiment [2] was 3.2 nM; in experiment [3] (Homo sapiens, 3 h), 62 nM.
With `COc1cc(-c2cc(C(O)C3CC3)n3ncnc(N)c23)ccc1CO` (single isomer, unassigned; ent-4) [Example 41, ent-4-Amino-5-[4-(hydroxymethyl)-3-methoxyphenyl]pyrrolo[2,1-f][1,2,4]triazin-7-yl}(cyclopropyl)methanol (enantiomer 1)], the IC50 was 3.5 nM in experiment [2] and 77 nM in experiment [3].
Regarding `COc1cc(-c2cc(C(O)C3CC3)n3ncnc(N)c23)ccc1CO` (single isomer, unassigned; ent-4) [Example 42, ent-4-Amino-5-[4-(hydroxymethyl)-3-methoxyphenyl]pyrrolo[2,1-f][1,2,4]triazin-7-yl}(cyclopropyl)methanol (enantiomer 2)], the IC50 is 1.2 nM in experiment [2] and 6.6 nM in experiment [3].
For `COc1cc(-c2cc(C3CCCNC3)n3ncnc(N)c23)cc(F)c1CO` (centres unmarked) [Example 30, {4-[4-Amino-7-(piperidin-3-yl)pyrrolo[2,1-f][1,2,4]triazin-5-yl]-2-fluoro-6-methoxyphenyl}-methanol], the IC50 was 2 nM in experiment [2] and 51 nM in experiment [3] (Homo sapiens, 3 h).
As for `CC(C)c1cc(-c2cc(F)c(CO)c(F)c2)c2c(N)ncnn12` [Example 43, [4-(4-Amino-7-isopropylpyrrolo[2,1-f][1,2,4]triazin-5-yl)-2,6-difluorophenyl]methanol], the concentration for half-maximal inhibition (IC50) in experiment [2] is 1.9 nM; in experiment [3] (Homo sapiens, 3 h), 27 nM.

These data come from US9040691B2, “Hydroxymethylaryl-substituted pyrrolotriazines as ALK1 inhibitors” (BAYER INTELLECTUAL PROPERTY GMBH, priority 2011, dated 2015).
